Numbers after ± are expanded uncertainties.
Conditions: 101.33 kPa, Liquid

| mass density (288.15 K) [kg/m3] | mass density (293.15 K) [kg/m3] | mass density (298.15 K) [kg/m3] | mass density (303.15 K) [kg/m3] | SMILES |
| --- | --- | --- | --- | --- |
| 1038.78 ± 0.24 | 1033.16 ± 0.23 | 1027.51 ± 0.22 | 1021.84 ± 0.21 | C1COCCO1 [1,4-dioxane] |
| 787.38 ± 0.23 | 782.01 ± 0.24 | 776.62 ± 0.24 | 771.19 ± 0.25 | CC#N [acetonitrile] |
| 728.82 ± 0.94 | 723.67 ± 0.95 | 718.46 ± 0.96 | 713.21 ± 0.97 | CC(C)OC(C)C [diisopropyl ether] |
| 892.86 ± 0.33 | 887.52 ± 0.34 | 882.04 ± 0.35 | 876.54 ± 0.36 | C1CCOC1 [tetrahydrofuran] |

Reference: the NIST ThermoML archive (doi:10.1016/j.jct.2007.09.007)
